# Data from PubChem BioAssay AID248 (DTP/NCI, 2004).
# Inconclusive results and toxic doses are left out.
# Tested on: L1210 leukemia ip in BDF1 mice, survival T/C
# Test: NCI In Vivo Anticancer Drug Screen. Data for tumor model L1210 Leukemia (intraperitoneal) in B6D2F1 (BDF1) mice
# Settings: endpoint: mean survival time, higher = longer survival
# How it was run: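 In this screen, tumor-bearing mice given compound are compared to those given vehicle, and their survival values are reported as a treated-to-control quotient.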
# [1] = dose: 100.0 mg/kg/injection, schedule: Q01DX001 (ip), vehicle: saline
# [2] = dose: 200.0 mg/kg/injection, schedule: Q01DX001 (ip), vehicle: saline
# [3] = dose: 400.0 mg/kg/injection, schedule: Q01DX001 (ip), vehicle: saline
# [4] = dose: 100.0 mg/kg/injection, schedule: Q01DX009 (ip), vehicle: Klucel (hydroxypropylcellulose) (HPC)
# [5] = dose: 200.0 mg/kg/injection, schedule: Q01DX009 (ip), vehicle: Klucel (hydroxypropylcellulose) (HPC)
# [6] = dose: 400.0 mg/kg/injection, schedule: Q01DX009 (ip), vehicle: Klucel (hydroxypropylcellulose) (HPC)
# [7] = dose: 100.0 mg/kg/injection, schedule: Q04DX003 (ip), vehicle: saline with Tween-80
# [8] = dose: 100.0 mg/kg/injection, schedule: Q04DX003 (ip), vehicle: Klucel (hydroxypropylcellulose) (HPC)
# [9] = dose: 200.0 mg/kg/injection, schedule: Q04DX003 (ip), vehicle: Klucel (hydroxypropylcellulose) (HPC)
structure (smiles),measurement,setting,value
CC(C)c1ccc(/C=C2\C=Nc3ccccc32)cc1,T/C,"dose: 100.0 mg/kg/injection, schedule: Q04DX002 (ip), vehicle: gum acacia",95 % of control
same,T/C,"dose: 200.0 mg/kg/injection, schedule: Q04DX002 (ip), vehicle: gum acacia",92 % of control
same,T/C,"dose: 400.0 mg/kg/injection, schedule: Q04DX002 (ip), vehicle: gum acacia",95 % of control
O=C(NCCN1CCOCC1)c1ccc(C(=O)NCCN2CCOCC2)cc1,T/C,[1],103 % of control
same,T/C,[2],105 % of control
same,T/C,[3],100 % of control
CN(C)CCc1ccc2cc3ccc(CCN(C)C)cc3nc2c1,T/C,"dose: 6.25 mg/kg/injection, schedule: Q04DX002 (ip), vehicle: saline with Tween-80",102 % of control
same,T/C,"dose: 12.5 mg/kg/injection, schedule: Q04DX002 (ip), vehicle: saline with Tween-80",105 % of control
same,T/C,"dose: 25.0 mg/kg/injection, schedule: Q04DX002 (ip), vehicle: saline with Tween-80",105 % of control
O=C1OC(c2ccccc2)=C/C1=C/c1ccc(Cl)cc1,T/C,"dose: 25.0 mg/kg/injection, schedule: Q04DX003 (ip), vehicle: alcohol",88 % of control
same,T/C,"dose: 50.0 mg/kg/injection, schedule: Q04DX003 (ip), vehicle: alcohol",90 % of control
same,T/C,"dose: 100.0 mg/kg/injection, schedule: Q01DX001 (ip), vehicle: alcohol",86 % of control
same,T/C,"dose: 100.0 mg/kg/injection, schedule: Q04DX003 (ip), vehicle: alcohol",87 % of control
same,T/C,"dose: 150.0 mg/kg/injection, schedule: Q01DX009 (ip), vehicle: alcohol",89 % of control
same,T/C,"dose: 150.0 mg/kg/injection, schedule: Q04DX003 (ip), vehicle: alcohol",87 % of control
same,T/C,"dose: 225.0 mg/kg/injection, schedule: Q01DX009 (ip), vehicle: alcohol",86 % of control
same,T/C,"dose: 225.0 mg/kg/injection, schedule: Q04DX003 (ip), vehicle: alcohol",91 % of control
same,T/C,"dose: 335.0 mg/kg/injection, schedule: Q01DX009 (ip), vehicle: alcohol",107 % of control
same,T/C,"dose: 335.0 mg/kg/injection, schedule: Q04DX003 (ip), vehicle: alcohol",90 % of control
COC(=O)c1ccccc1NC(=O)Cc1ccccc1,T/C,[4],91 % of control
same,T/C,[5],98 % of control
same,T/C,[6],98 % of control
CC(O)C/C=N\N=C(N)N (stereo not drawn),T/C,"dose: 15.0 mg/kg/injection, schedule: Q01DX Z (ip), vehicle: methylcellulose (MC)",95 % of control
same,T/C,"dose: 15.0 mg/kg/injection, schedule: Q01DX Z (oral), vehicle: methylcellulose (MC)",101 % of control
same,T/C,"dose: 30.0 mg/kg/injection, schedule: Q01DX Z (oral), vehicle: methylcellulose (MC)",88 % of control
same,T/C,"dose: 60.0 mg/kg/injection, schedule: Q01DX Z (oral), vehicle: methylcellulose (MC)",94 % of control
same,T/C,"dose: 120.0 mg/kg/injection, schedule: Q01DX Z (oral), vehicle: methylcellulose (MC)",88 % of control
CC1(C)C2CCC(I)(C2)C1O (stereo not drawn),T/C,"dose: 100.0 mg/kg/injection, schedule: Q01DX001 (ip), vehicle: saline with Tween-80",105 % of control
same,T/C,"dose: 200.0 mg/kg/injection, schedule: Q01DX001 (ip), vehicle: saline with Tween-80",100 % of control
same,T/C,"dose: 400.0 mg/kg/injection, schedule: Q01DX001 (ip), vehicle: saline with Tween-80",105 % of control
O=C1C(=O)N2CCCCc3cccc1c32,T/C,"dose: 50.0 mg/kg/injection, schedule: Q01DX001 (ip), vehicle: carboxymethylcellulose (CMC)",96 % of control
same,T/C,"dose: 100.0 mg/kg/injection, schedule: Q01DX001 (ip), vehicle: carboxymethylcellulose (CMC)",108 % of control
same,T/C,"dose: 200.0 mg/kg/injection, schedule: Q01DX001 (ip), vehicle: carboxymethylcellulose (CMC)",100 % of control
same,T/C,"dose: 400.0 mg/kg/injection, schedule: Q01DX001 (ip), vehicle: carboxymethylcellulose (CMC)",101 % of control
C/C(=C\c1ccccc1)C(=O)C1C(c2ccccc2)CC(=O)C(C)C1c1ccccc1 (stereo not drawn),T/C,"dose: 50.0 mg/kg/injection, schedule: Q04DX002 (ip), vehicle: saline + alcohol",98 % of control
same,T/C,"dose: 100.0 mg/kg/injection, schedule: Q04DX002 (ip), vehicle: saline + alcohol",91 % of control
same,T/C,"dose: 200.0 mg/kg/injection, schedule: Q04DX002 (ip), vehicle: saline + alcohol",91 % of control
CSc1nc(N(C)C)c2ncn(C3OC(C[N+](=O)[O-])C(OC(C)=O)C(OC(C)=O)C3OC(C)=O)c2n1 (stereo not drawn),T/C,"dose: 50.0 mg/kg/injection, schedule: Q04DX002 (ip), vehicle: saline",89 % of control
same,T/C,"dose: 100.0 mg/kg/injection, schedule: Q04DX002 (ip), vehicle: saline",112 % of control
same,T/C,"dose: 200.0 mg/kg/injection, schedule: Q04DX002 (ip), vehicle: saline",94 % of control
O=C(OC(=O)c1ccncc1)c1ccncc1,T/C,"dose: 75.0 mg/kg/injection, schedule: Q04DX003 (ip), vehicle: saline",94 % of control
same,T/C,"dose: 150.0 mg/kg/injection, schedule: Q04DX003 (ip), vehicle: saline",92 % of control
same,T/C,"dose: 300.0 mg/kg/injection, schedule: Q04DX003 (ip), vehicle: saline",110 % of control
CCOC(=O)c1cccc(N(CCO)CCO)c1,T/C,"dose: 50.0 mg/kg/injection, schedule: Q01DX001 (ip), vehicle: saline",103 % of control
same,T/C,[1],97 % of control
same,T/C,[2],103 % of control
same,T/C,[3],103 % of control
COc1ccc2c(Nc3ccc(NS(C)(=O)=O)cc3)c3ccccc3nc2c1,T/C,"dose: 6.25 mg/kg/injection, schedule: Q01DX009 (ip), vehicle: saline with Tween-80",183 % of control
same,T/C,"dose: 12.5 mg/kg/injection, schedule: Q01DX009 (ip), vehicle: saline with Tween-80",181 % of control
same,T/C,"dose: 25.0 mg/kg/injection, schedule: Q01DX009 (ip), vehicle: saline with Tween-80",117 % of control
same,T/C,"dose: 25.0 mg/kg/injection, schedule: Q01DX009 (sc), vehicle: saline",164 % of control
same,T/C,"dose: 44.0 mg/kg/injection, schedule: Q04DX003 (ip), vehicle: saline with Tween-80",172 % of control
same,T/C,"dose: 50.0 mg/kg/injection, schedule: Q01DX009 (sc), vehicle: saline",95 % of control
same,T/C,"dose: 67.0 mg/kg/injection, schedule: Q04DX003 (ip), vehicle: saline with Tween-80",169 % of control
same,T/C,[7],276 % of control
Clc1c(Cl)c(Cl)c2n[nH]nc2c1Cl,T/C,"dose: 75.0 mg/kg/injection, schedule: Q01DX001 (ip), vehicle: saline",96 % of control
Cc1ccc(C)n1-c1ccccc1C(=O)O,T/C,[4],95 % of control
same,T/C,[8],93 % of control
same,T/C,[5],107 % of control
same,T/C,[9],106 % of control
same,T/C,[6],101 % of control
same,T/C,"dose: 400.0 mg/kg/injection, schedule: Q04DX003 (ip), vehicle: Klucel (hydroxypropylcellulose) (HPC)",101 % of control
N#Cc1ccccc1.N#Cc1ccccc1.[Cl][Pd][Cl],T/C,"dose: 50.0 mg/kg/injection, schedule: Q01DX009 (ip), vehicle: Klucel (hydroxypropylcellulose) (HPC)",95 % of control
same,T/C,[4],95 % of control
same,T/C,[8],94 % of control
same,T/C,[5],101 % of control
same,T/C,[9],102 % of control
CCOC(CSC)OCC,T/C,"dose: 100.0 mg/kg/injection, schedule: Q01DX009 (sc), vehicle: olive oil, sesame oil, peanut oil",99 % of control
same,T/C,"dose: 100.0 mg/kg/injection, schedule: Q04DX003 (sc), vehicle: olive oil, sesame oil, peanut oil",102 % of control
same,T/C,"dose: 200.0 mg/kg/injection, schedule: Q01DX009 (sc), vehicle: olive oil, sesame oil, peanut oil",94 % of control
same,T/C,"dose: 200.0 mg/kg/injection, schedule: Q04DX003 (sc), vehicle: olive oil, sesame oil, peanut oil",96 % of control
same,T/C,"dose: 400.0 mg/kg/injection, schedule: Q01DX009 (sc), vehicle: olive oil, sesame oil, peanut oil",91 % of control
same,T/C,"dose: 400.0 mg/kg/injection, schedule: Q04DX003 (sc), vehicle: olive oil, sesame oil, peanut oil",94 % of control
S=C1SCC(c2ccccc2)S1 (stereo not drawn),T/C,[7],92 % of control
same,T/C,"dose: 200.0 mg/kg/injection, schedule: Q04DX003 (ip), vehicle: saline with Tween-80",92 % of control
same,T/C,"dose: 400.0 mg/kg/injection, schedule: Q04DX003 (ip), vehicle: saline with Tween-80",89 % of control
CCOc1ccc(/C=N/NC(C)=O)cc1OC,T/C,"dose: 50.0 mg/kg/injection, schedule: Q01DX009 (ip), vehicle: saline with Tween-80",95 % of control
same,T/C,"dose: 100.0 mg/kg/injection, schedule: Q01DX009 (ip), vehicle: saline with Tween-80",101 % of control
